# Measurements reported in patent US20060025458A1, “Alkylammonium compounds as antifungal and antitrypanosomal agents” (University of Connecticut, priority 2004, published 2006).
# Tests used:
# [1] = system: P. falciparum and P. cynomolgi; settings: very low doses; cited from earlier work
# [2] = system: choline transport in the wild-type strain of S. cerevisiae; experiment: [methyl-3H]-choline uptake in wild-type S. cerevisiae; format: cell-based, Saccharomyces cerevisiae
# Protocol: Uptake Assays: Yeast strains were grown in synthetic complete medium supplemented as required to maintain cell growth to an optical density of 0.55-0.65 at 600 nm. Cells were harvested by centrifugation at 3,200×g for 10 min at 4° C., washed twice in cold PBS and resuspended in nitrogen-free medium (SD without ammonium sulfate). […] After 3 min incubation at 30° C. with shaking, transport was immediately stopped by filtration through Whatman GF/C glass microfiber paper. The filters were washed three times with 5 ml ice-cold PBS, air dried, and analyzed in a scintillation counter. For time course uptake, 3-4×10^7 cells were incubated at 30° C. in 1 ml of nitrogen-free medium in the presence of 25 nM [^3H]-T16 (69 Ci/mmol) for different time periods (1, 2, 3, 4, 5, 7, 10 and 15 min) after which 5 ml of cold PBS was added to stop the reaction. Kinetic parameters were determined after 4 min of incubation at 30° C. in the presence of [^3H]-T16 at concentrations ranging from 25 nM to 75 μM (69 Ci - 23 mCi/mol). The samples were centrifuged at 4° C. for 10 min at 1,200×g, the supernatants were discarded and the cells were then resuspended in 5 ml of cold PBS. The reaction was terminated by filtering the cell suspension through GF/C membranes that were pretreated with 15 ml of 0.05% polyethyleneimine (PEI). The filters were washed twice with 5 ml of cold PBS, air dried, and analyzed in a scintillation counter. The cellular accumulation ratio (CAR) was calculated as previously described for T16 and G25 (Biagini, et al., 2003; Wengelnik, et al., 2002).
# [3] = system: de novo CDP-choline pathway (PtdCho synthesis from choline); experiment: Incorporation of labeled choline into PtdCho in P. falciparum-infected erythrocytes; format: cell-based, Plasmodium falciparum
# Protocol: FIG. 10A. […] 5-6×10^7 synchronized P. falciparum-infected erythrocytes (7% trophozoite stage) were pre-incubated at 4% haematocrit for 1 h in RPMI-based medium containing the indicated concentration of G25 before adding 30 μM [methyl-^3H]-choline (334 mCi/mmol). After incubation at 37° C. for 3 h, the cellular lipids were extracted and fractionated on TLC plates for quantification of radioactivity in PtdCho (black squares).
# (§1) Labeling Studies and Phospholipid Analysis in P. falciparum: Nigerian strains of P. falciparum were asexually cultured in the presence of basic medium (RPMI 1640 supplemented with 25 mM Hepes, pH 7.4) and 10% AB^+ human serum (Trager and Jensen, 1976). Parasite synchronization was obtained with three successive 5% sorbitol treatments (Lambros and Vanderberg, 1979). Synchronized P. falciparum-infected erythrocytes (7-10% parasitemia, trophozoites) were pre-incubated for 1 hour at 37° C. at 4% hematocrit in 2 ml (final volume) basic medium in the absence or the presence of different concentrations of the compound G25. The appropriate radioactive precursor of lipid metabolism was added followed by further 3 h of incubation. Radioactive precursors were used as follows: 30 μM [methyl-^3H]-choline (334 mCi/mmol), 2 μM [^3H]-ethanolamine (2 Ci/mmol) and 10 μM [3-^14C]-serine (57 mCi/mmol). Following incubation with radiolabeled precursors, cells were concentrated by centrifugation at 1,200×g for 5 min at 4° C., washed twice and the cellular lipids were extracted by a mixture of chloroform/methanol (Folch, et al., 1957) and the organic phase was evaporated under air. […] The silica gel of the lipid spots were scraped directly into scintillation vials containing 3 ml of liquid-scintillation fluid and counted in a Beckman LS 5000 spectrophotometer. The amount of labeled precursors incorporated into cellular lipids (nmol×10^7 cell^−1×h^−1) was computed on the basis of radioactivity incorporated into lipids and the specific activity of the precursors in the incubation medium. […]
# [4] = system: P. falciparum; settings: cited from earlier work
# [5] = system: S. cerevisiae; experiment: Liquid growth inhibition assay of S. cerevisiae (OD600); format: cell-based, Saccharomyces cerevisiae
# Protocol: Strains and Growth Conditions: Wild-type (BY4741: Mata his3Δ1 leu2Δ0 met15Δ0 ura3Δ0) and mutant (hnm1Δ, psd1Δ, cki1Δ, pem1Δ, ept1Δ, cpt1Δ, eki1Δ, psd2Δ, pct1Δ, ect1Δ, pem2Δ) S. cerevisiae strains used in this study were purchased from Research Genetics (Invitrogen, USA). These strains were grown on YPD (1% yeast extract, 2% dextrose and 2% peptone) or synthetic complete medium (SD, 1.7% yeast nitrogen base, 5% ammonium sulfate and 2% dextrose). The Nigerian strain of P. falciparum was propagated in human red blood cells at 4% hematocrit by the method of Trager and Jensen (1976). Plate growth assays were performed by growing wild-type and mutant yeast strains in YPD to mid-log phase. Cultures were serially diluted 1:10 starting with a density of 3×10^7 cells/ml. The growth of cells was monitored by spotting 3 μl of each dilution onto solid medium in the absence or presence of 5 μM of G25.
# Twenty-one analogs including first, second and third generation (E2a, E6, E9, E13, E24, F4, G2, G4, G5, G14, GI5, G25, H5, L1, L4, M34, M53, MS1, T3 and T4) compounds (provided by Dr. Henri Vial, City, Country) were tested (FIG. 4). The choice of the compounds was such that they represent all possible structural features introduced during the optimization process for enhancing antimalarial activity as determined using the combinatorial chemistry techniques.
# The antimalarial drug G25 inhibits the growth of Saccharomyces cerevisiae. […] Growth inhibition was assessed by measuring the OD600 and comparing it to that of the wild-type strain grown under the same conditions in the absence of the compound. […] This IC50 value is in the range of the predicted intracellular concentration of G25 in P. falciparum due to the accumulative properties inside the infected erythrocytes.
# [6] = system: de novo biosynthesis of PtdEtn from ethanolamine; experiment: Incorporation of radiolabeled ethanolamine into PtdEtn in P. falciparum-infected erythrocytes; format: cell-based, Plasmodium falciparum; settings: concentrations up to 100 μM
# Protocol: as §1, with “mCi/mmol).” for “mCi/mmol). Following incubation with radiolabeled precursors, cells were concentrated by centrifugation at 1,200×g for 5 min at 4° C., washed twice and the cellular lipids were extracted by a mixture of chloroform/methanol (Folch, et al., 1957) and the organic phase was evaporated under air.”
compound,measurement,setting,value
"C[N+]1(CCCCCCCCCCCCCCCC[N+]2(C)CCCC2)CCCC1.[Br-].[Br-] [G25, 1,16-hexadecamethylenebis[N-methylpyrrolidinium]dibromide]",malaria infection in monkeys,[1],cleared malaria infection
same,inhibition of choline transport,[2]; 20-fold excess over [methyl-3H]-choline,50%
same,inhibition of choline transport,[2]; 100-fold excess over [methyl-3H]-choline,84%
same,inhibition of PtdCho biosynthesis,[3]; 1 μM G25,56%
same,inhibition of PtdCho biosynthesis,[3]; 10 μM G25,nearly complete inhibition
same,concentration causing a significant decrease of PtdCho biosynthesis,[3]; trophozoite-infected erythrocytes,higher than 0.1 μM
same,IC50,"[4]; in vitro, literature, read-out: IC50, P. falciparum",1.2 nM
same,IC90/IC50 ratios,[4]; multidrug resistant laboratory and clinical isolates,less than 3
same,Inhibition of S. cerevisiae growth (in words),"[5]; structure-activity comparison, Examples 2-4",inhibited
same,IC50,"[5]; wild-type strain BY4741, 1×10^4 cells/ml, liquid medium, 30° C., 16 h, read-out: IC50, inhibition of yeast growth",2500 nM
same,effect on incorporation of radiolabeled ethanolamine into PtdEtn,[6],no effect
